In patent publication US9131690B2, “Macrocyclic picolinamides as fungicides” (Dow AgroSciences LLC, priority 2012, dated 2015):
Where two headings read alike, the source gives them in different places.

Tests used:
[1] = test system: Mycosphaerella graminicola; Anamorph: Septoria tritici; assay: Fungicidal activity: Leaf Blotch of Wheat (SEPTTR), wheat plants variety Yuma; format: in vivo; details: Zymoseptoria tritici
Method: Evaluation of Fungicidal Activity: Leaf Blotch of Wheat (Mycosphaerella graminicola; Anamorph: Septoria tritici; Bayer Code […]) Wheat plants (variety Yuma) were grown from seed in a greenhouse in 50% mineral soil/50% soil-less Metro mix until the first leaf was fully emerged, with 7-10 seedlings per pot. These plants were inoculated with an aqueous spore suspension of Septoria tritici either prior to or after fungicide treatments. After inoculation the plants were kept in 100% relative humidity (one day in a dark dew chamber followed by two to three days in a lighted dew chamber) to permit spores to germinate and infect the leaf. The plants were then transferred to a greenhouse at 20° C. for disease to develop.

[2] = test system: Puccinia triticina. Synonym: Puccinia recondite f. sp. tritici; assay: Fungicidal activity: Wheat Brown Rust (PUCCRT), wheat plants variety Yuma; format: in vivo; set-up: key to PUCCRT 3DC Disease Control: A: 50-100; B: More than 0-Less than 50; C: Not Tested; D: No activity noticed in this bioassay; details: for pest or weed control at 100 ppm: Puccinia triticina; for PUCCRT 3DC Disease Control: 100 ppm
Method: Evaluation of Fungicidal Activity: Wheat Brown Rust (Puccinia triticina. Synonym: Puccinia recondite f. sp. tritici; Bayer Code PUCCRT) Wheat plants (variety Yuma) were grown from seed in a greenhouse in 50% mineral soil/50% soil-less Metro mix until the first leaf was fully emerged, with 7-10 seedlings per pot. These plants were inoculated with an aqueous spore suspension of Puccinia recondite f. sp. tritici either prior to or after fungicide treatments. After inoculation the plants were kept in 100% relative humidity overnight to permit spores to germinate and infect the leaf. The plants were then transferred to a greenhouse set at 24 C for disease to develop.

[3] = 24 h, 1 Day Protectant, read-out: SEPTTR 1DP Disease Control
[4] = 72 h, 3 Day Curative, read-out: SEPTTR 3DC Disease Control
[5] = 24 h, 1 Day Protectant, read-out: PUCCRT 1DP Disease Control
[6] = 72 h, 3 Day Curative, read-out: PUCCRT 3DC Disease Control

| Structure (SMILES) | pest or weed control at 100 ppm [1, 3] | pest or weed control at 100 ppm [1, 4] | melting point | pest or weed control at 100 ppm [2, 5] | pest or weed control at 100 ppm [2, 6] | PUCCRT 3DC Disease Control ([2]; 3 Day Curative) |
| --- | --- | --- | --- | --- | --- | --- |
| CC[C@H]1C(=O)OC[C@H](NC(=O)c2nccc(OC)c2OC(C)=O)C(=O)O[C@@H](C)[C@@H]1OC(=O)C(C)C [Compound 69] | 50 to 100% | 50 to 100% | 158 to 161 °C | 50 to 100% | 50 to 100% |  |
| COc1ccnc(C(=O)N[C@H]2COC(=O)[C@H](CCOC(=O)c3c(F)c(F)c(F)c(F)c3F)[C@@H](OC(=O)C(C)C)[C@H](C)OC2=O)c1O [Compound 43] | 50 to 100% | 0 to 50% | 167 to 168 °C | 50 to 100% | 0 to 50% |  |
| COc1ccnc(C(=O)N[C@H]2COC(=O)[C@H](CCOC(=O)c3ccc(C(F)(F)F)cc3)[C@@H](OC(=O)C(C)C)[C@H](C)OC2=O)c1O [Compound 42] | 0 to 50% | 0 to 50% | 160 to 162 °C | 50 to 100% |  | D |
| COc1ccnc(C(=O)N[C@H]2COC(=O)[C@H](Cc3ccc(F)cc3F)[C@@H](OC(=O)C(C)C)[C@H](C)OC2=O)c1O [Compound 10] | 50 to 100% | 0 to 50% | 184 to 185 °C | 50 to 100% | 50 to 100% |  |
| CCOCC[C@H]1C(=O)OC[C@H](NC(=O)c2nccc(OC)c2O)C(=O)O[C@@H](C)[C@@H]1OC(=O)C(C)C [Compound 45] | 0 to 50% | 0 to 50% | 134 to 136 °C | 50 to 100% | 50 to 100% |  |
| COc1ccnc(C(=O)N[C@H]2COC(=O)[C@H](CCn3cc(-c4cccc(Cl)c4)nn3)[C@@H](OC(=O)C(C)C)[C@H](C)OC2=O)c1O [Compound 54, (3S,6S,7R,8R)-8-(2-(4-(3-chlorophenyl)-1H-1,2,3-triazol-1-yl)ethyl)-3-(3-hydroxy-4 methoxypicolinamido)-6-methyl-4,9-dioxo-1,5-dioxonan-7-yl isobutyrate] | 50 to 100% | 0 to 50% | 222 to 224 °C | 50 to 100% |  | D |
| COc1ccnc(C(=O)N[C@H]2COC(=O)[C@H](CCOC(=O)c3ccccc3)[C@@H](OC(=O)C(C)C)[C@H](C)OC2=O)c1OCOC(=O)C(C)C [Compound 19, 2-((3S,7R,8R,9S)-8-(isobutyryloxy)-3-(3-(isobutyryloxymethoxy)-4-methoxypicolinamido)-9-methyl-2,6-dioxo-1,5-dioxonan-7-yl)ethyl benzoate] | 50 to 100% | 0 to 50% | 48 to 50 °C | 50 to 100% | 50 to 100% |  |
| COc1ccnc(C(=O)N[C@H]2COC(=O)[C@H](CCOC(=O)c3ccc(-c4ccccc4)cc3)[C@@H](OC(=O)C(C)C)[C@H](C)OC2=O)c1O [Compound 40] | 50 to 100% | 0 to 50% | 178 to 179 °C | 50 to 100% |  | D |
| COC(=O)C[C@H]1C(=O)OC[C@H](NC(=O)c2nccc(OC)c2O)C(=O)O[C@@H](C)[C@@H]1OC(=O)C(C)C [Compound 50] | 50 to 100% | 50 to 100% | 138 to 140 °C | 50 to 100% | 50 to 100% |  |
| COc1ccnc(C(=O)N[C@H]2COC(=O)[C@H](CC3CCCCC3)[C@@H](OC(=O)C(C)C)[C@H](C)OC2=O)c1OCOC(=O)C(C)C [Compound 27] | 0 to 50% | 0 to 50% | 117 to 119 °C | 0 to 50% | 0 to 50% |  |
| COc1ccnc(C(=O)N[C@H]2COC(=O)[C@H](CC(F)F)[C@@H](OC(=O)C(C)C)[C@H](C)OC2=O)c1O [Compound 52, (3S,6S,7R,8R)-8-(2,2-difluoroethyl)-3-(3-hydroxy-4-methoxypicolinamido)-6-methyl-4,9-dioxo-1,5-dioxonan-7-yl isobutyrate] | 50 to 100% | 0 to 50% | 195 to 196 °C | 50 to 100% | 0 to 50% |  |
